Assay results reported in patent publication US10070651B2, “Synthesis and characterization of antimicrobial non-color forming silver-silica nanocomposite” (UNIVERSITY OF CENTRAL FLORIDA RESEARCH FOUNDATION, INC., priority 2015, dated 2018).

Experiments:
[1] = Color passivation study on coated tiles (thermal and UV treatments); assay type: physicochemical
Protocol: White tiles were purchased from Home Depot, and scrubbed with acetone and Kim wipes to remove any oils which would inhibit materials from adhering well. After scrubbing and allowing the tiles to dry, about 50 μL samples of each material were spread over an area approximately 3cm by 3cm, and allowed to dry under ambient conditions. A picture was taken, and then tiles were exposed to long and shortwave UV radiation for 5 minutes, and briefly heated using a butane torch, and photographed again to observe the change in color of each material.

[2] = system: bacteria; experiment: Antimicrobial efficacy / bacterial viability assay, summary statements without named organism; assay type: cell-based; conditions: equivalent concentrations of silver
Protocol: Such an enhanced antimicrobial efficacy, for instance, may be attributed to a sustained release of silver, for example, either as a nanoparticle and/or its ionic form. By way of example, antimicrobial efficacy of the silica-silver nanocomposite particle was evaluated relative to that of the silver nanoparticle (AgNP) lacking the dielectric material encapsulation and aqueous silver nitrate (AgNO3) solutions, respectively, at equivalent concentrations of silver (if present). Note that, the silver nanoparticle and the silver nitrate, in this example, have been used as a positive growth control, while the silica nanoparticle (SiNP) lacking silver components, has been used as a negative growth control.
In order to gain a better understanding of the antimicrobial efficacy of each material, we carried out a colony forming unit study over two time points, 1 and 4 hours. 96 well plates were prepared and incubated as described for M IC studies, and 10 μL samples from wells containing the concentrations of antimicrobial agents were taken at each time point. […] MH2 agar plates labeled by material and time point were then spotted with five 10 μL drops from each well at each concentration, allowed to dry in the sterile conditions of a biosafety cabinet, and then incubated 12-14 hours before colonies were counted. […]

For O=[N+]([O-])[O-].[Ag+] [AgNO3, silver nitrate], the “color of coated tile after thermal and UV treatments” value ([1]; UV radiation for 5 minutes and brief heating with butane torch) was “dark brown/black color”, the “color of coated tile before thermal and UV treatments” value ([1]; white tiles, dried coating) was “do not show formation of color” and the “antimicrobial efficacy, relative ranking” value [2] was “most effective antimicrobial form of silver”.
